The source of these data is patent US9956157B2, “Composition containing fucosterol for skin whitening or moisturizing” (INDUSTRY-ACADEMIC COOPERATION FOUNDATION, YONSEI UNIVERSITY, priority 2014, dated 2018).

The experiment has as its system B16F10 melanoma cells. Put plainly: Melanin generation in α-MSH-stimulated B16F10 melanoma cells (absorbance 405 nm). Type of experiment: cell-based. The following applies: 200 nM α-MSH, fucosterol 5, 10, 20 μM, 72 hrs, P<0.01, FIG. 2. The protocol: B16F10 melanoma cells were incubated in a DMEM medium including 10% fetal bovine serum and then added in a 6-well plate with 2.5×10^5 cell/mL (the final volume of 3 mL). After being incubated for 24 hrs, the medium was removed and fucosterol which was dissolved in the DMEM medium including 200 nM α-MSH was treated at 5, 10, and 20 μM concentrations, respectively. After 72 hrs, the incubated medium was removed from the 6-well plate and 0.25% trypsin-ethylenediaminetetraacetate (trypsin-EDTA) solution was treated to collect a cell pellet, and the cell pellet was transferred to a 1.5 mL tube and centrifuged for 10 min at 10,000 rpm to remove a supernatant. […] This solution was diluted with phosphate buffered saline (PBS) and then the melanin content in a sample treatment group was calculated by measuring absorbance at 405 nm by an ELISA reader (Versa max, Sunnyvale, Calif., USA). In this case, cells without the fucosterol were set to a control group and the melanin generation degree was measured in the control group and cells treated with the fucosterol. According to Equation 1 below, the melanin content compared with the control group was calculated and the result was illustrated in FIG. 2. Melanin content (%) compared with control group=absorbance of each test material/absorbance of control group×100 [Equation 1]

For the molecule `C/C=C(\CC[C@@H](C)[C@H]1CC[C@H]2[C@@H]3CC=C4C[C@@H](O)CC[C@]4(C)[C@H]3CC[C@]12C)C(C)C` [fucosterol], the “inhibitory effect on melanin generation” value is on record as “very excellent inhibitory effect”.
